“And” between values parts separate entries of the source, which are not always exact repeats. Equal values may be shown once. Read-outs that look alike come from different tables or passages of the source.
Tests used:
[1] = biological target: P2 transporter (TbAT1) (Trypanosoma brucei brucei, UniProt Q9Y0I0); test: cell-based; details: for Ki: P2 transporter Ki
Procedure: Non-specific association of radiolabel with the cell pellet was determined using an identical incubation in the presence of saturating (1 mM) unlabelled adenosine.

[2] = tested on: T. brucei BSF s427 wildtype cells; test: Growth assays of T. brucei (trypanocidal/trypanostatic effect); assay type: cell-based, Trypanosoma brucei
Procedure: Growth assays of T. brucei
To test the effect of the novel adenosine analogues on the growth of T. brucei BSF, s427 wildtype cells were seeded at 1×10^5 cells mL-1 in 5 mL of HMI-9 medium with 10% FBS and treated with compounds […]
cells were also incubated in drug-free medium under the same conditions. 2 μM of 2’-deoxycoformycin were added to all cultures to avoid any potential effect of serum adenosine deaminase on the activity of test compounds and cordycepin.1
Cells were manually counted in Neubauer chambers at 0, 2, 4, 6, 8, 12, 24, 36 and 48 h after addition of […]
the drugs. […]
After 6 and 12 h after addition of drugs, approximately 2×10^6 cells were harvested from each group and applied to glass slides pre-treated with poly-L-lysine, left to settle for 5 min and fixed with 4% formaldehyde for 4 min. The formaldehyde was neutralised by addition of 100 mM glycine (20 min).
Cells were washed once with PBS and blocked for 1 h with 1% BSA/0.2% Tween-20 in PBS. Cells were […]

[3] = tested on: TbAT1-KO: T. brucei cell line lacking the TbAT1(P2) transporter gene; test: microbe, parasite or virus in culture; assay type: cell-based, Trypanosoma brucei brucei
Summary of the method: (§1)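 Trypanosomes (2 × 10^4 cells/well) exposed 48 h at 37 °C/5% CO2 in HMI-9/FBS to 23-step doubling dilutions from 100 µM, then resazurin added for a further 24 h. Fluorescence fitted to a variable-slope sigmoid curve.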

[4] = tested on: ISMR1: isometamidium-resistant T. brucei cell line; test: microbe, parasite or virus in culture; assay type: cell-based, Trypanosoma brucei brucei
Summary of the method: as §1

[5] = tested on: T. b. brucei Lister 427WT; test: Drug susceptibility test (resazurin), Lister 427WT; assay type: cell-based, Trypanosoma brucei brucei
Summary of the method: as §1

P2 transporter (TbAT1), sequence (Q9Y0I0 entry or part of it): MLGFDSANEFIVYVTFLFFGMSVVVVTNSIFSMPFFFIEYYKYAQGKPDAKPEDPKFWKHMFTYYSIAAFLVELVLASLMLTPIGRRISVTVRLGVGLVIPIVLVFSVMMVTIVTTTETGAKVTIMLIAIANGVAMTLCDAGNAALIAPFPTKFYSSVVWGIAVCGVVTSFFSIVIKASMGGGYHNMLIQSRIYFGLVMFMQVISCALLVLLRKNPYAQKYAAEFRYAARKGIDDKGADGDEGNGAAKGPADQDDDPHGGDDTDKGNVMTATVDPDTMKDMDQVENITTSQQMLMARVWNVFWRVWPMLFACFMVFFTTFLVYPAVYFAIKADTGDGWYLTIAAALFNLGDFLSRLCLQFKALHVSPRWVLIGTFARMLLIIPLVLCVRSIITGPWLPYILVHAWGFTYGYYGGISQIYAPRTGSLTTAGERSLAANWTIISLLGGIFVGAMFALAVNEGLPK

Structure (SMILES): Nc1ncnc2c1ccn2[C@@H]1O[C@H](CO)C[C@H]1O [Compound 9, 3’-deoxytubercidin]
- P2 Ki, fold lower than the Km value for adenosine [1]: roughly 3 fold
- energy advantage at P2 versus adenosine [1]: roughly 3 kJ mol^−1
- P2 transporter ΔG^0 ([1]; Gibbs free energy from −RT ln(Ki)): -9.3 kcal/mol
- IC50 ([1]; P2 transporter IC50, single experiments, [L] 0.033 or 0.1 per experiment): 133 nM and 281 nM and 171 nM and 85 nM
- Ki ([1]; AVG, source data): 147 nM
- Ki ([1]; inhibition of [3H]adenosine uptake, mean ± SEM, n = 3): 149 ± 30 nM
- Ki ([1]; single experiments, Cheng–Prusoff from IC50): 111 nM and 236 nM and 160 nM and 80 nM
- P2 transporter δ(ΔG^0) ([1]; in comparison to adenosine): -0.741 kcal/mol
- AVG of cells/mL ([2]; 2xEC50, 2 h, experiment 1): 105000 cells/mL
- Cells/mL ([2]; 2xEC50, 2 h, experiment 1): 117500 Cells/mL and 92500 Cells/mL
- Counts ([2]; 2xEC50, 2 h, experiment 1): 47 and 37
- AVG of cells/mL ([2]; 2xEC50, 2 h, experiment 2): 147500 cells/mL
- Cells/mL ([2]; 2xEC50, 2 h, experiment 2): 140000 Cells/mL and 155000 Cells/mL
- Counts ([2]; 2xEC50, 2 h, experiment 2): 56 and 62
- AVG of cells/mL ([2]; 2xEC50, 4 h, experiment 1): 158750 cells/mL
- Cells/mL ([2]; 2xEC50, 4 h, experiment 1): 160000 Cells/mL and 157500 Cells/mL
- Counts ([2]; 2xEC50, 4 h, experiment 1): 63 and 64
- AVG of cells/mL ([2]; 2xEC50, 4 h, experiment 2): 186250 cells/mL
- Cells/mL ([2]; 2xEC50, 4 h, experiment 2): 177500 Cells/mL and 195000 Cells/mL
- Counts ([2]; 2xEC50, 4 h, experiment 2): 78 and 71
- AVG of cells/mL ([2]; 2xEC50, 6 h, experiment 1): 160000 cells/mL
- Cells/mL ([2]; 2xEC50, 6 h, experiment 1): 170000 Cells/mL and 150000 Cells/mL
- Counts ([2]; 2xEC50, 6 h, experiment 1): 68 and 60
- AVG of cells/mL ([2]; 2xEC50, 6 h, experiment 2): 210000 cells/mL
- Cells/mL ([2]; 2xEC50, 6 h, experiment 2): 192500 Cells/mL and 227500 Cells/mL
- Counts ([2]; 2xEC50, 6 h, experiment 2): 77 and 91
- AVG of cells/mL ([2]; 2xEC50, 8 h, experiment 1): 167500 cells/mL
- Cells/mL ([2]; 2xEC50, 8 h, experiment 1): 162500 Cells/mL and 172500 Cells/mL
- Counts ([2]; 2xEC50, 8 h, experiment 1): 65 and 69
- AVG of cells/mL ([2]; 2xEC50, 8 h, experiment 2): 156250 cells/mL
- Cells/mL ([2]; 2xEC50, 8 h, experiment 2): 162500 Cells/mL and 150000 Cells/mL
- Counts ([2]; 2xEC50, 8 h, experiment 2): 65 and 60
- AVG of cells/mL ([2]; 2xEC50, 12 h, experiment 1): 152500 cells/mL
- Cells/mL ([2]; 2xEC50, 12 h, experiment 1): 165000 Cells/mL and 140000 Cells/mL
- Counts ([2]; 2xEC50, 12 h, experiment 1): 66 and 56
- AVG of cells/mL ([2]; 2xEC50, 12 h, experiment 2): 145000 cells/mL
- Cells/mL ([2]; 2xEC50, 12 h, experiment 2): 145000 Cells/mL
- Counts ([2]; 2xEC50, 12 h, experiment 2): 58
- AVG of cells/mL ([2]; 2xEC50, 24 h, experiment 1): 86250 cells/mL
- Cells/mL ([2]; 2xEC50, 24 h, experiment 1): 77500 Cells/mL and 95000 Cells/mL
- Counts ([2]; 2xEC50, 24 h, experiment 1): 31 and 38
- AVG of cells/mL ([2]; 2xEC50, 24 h, experiment 2): 47500 cells/mL
- Cells/mL ([2]; 2xEC50, 24 h, experiment 2): 37500 Cells/mL and 57500 Cells/mL
- Counts ([2]; 2xEC50, 24 h, experiment 2): 15 and 23
- AVG of cells/mL ([2]; 2xEC50, 36 h, experiment 1): 76250 cells/mL
- Cells/mL ([2]; 2xEC50, 36 h, experiment 1): 87500 Cells/mL and 65000 Cells/mL
- Counts ([2]; 2xEC50, 36 h, experiment 1): 35 and 26
- AVG of cells/mL ([2]; 2xEC50, 36 h, experiment 2): 6250 cells/mL
- Cells/mL ([2]; 2xEC50, 36 h, experiment 2): 7500 Cells/mL and 5000 Cells/mL
- Counts ([2]; 2xEC50, 36 h, experiment 2): 3 and 2
- Cells/mL ([2]; 2xEC50, 48 h, experiment 1): 0 Cells/mL
- Counts ([2]; 2xEC50, 48 h, experiment 1): 0
- AVG of cells/mL ([2]; 2xEC50, 48 h, experiment 2): 2500 cells/mL
- effect on T. brucei bloodstream forms in culture (cidal/static) ([2]; 2× and 5× EC50): trypanocidal
- AVG of cells/mL ([2]; 5xEC50, 2 h, experiment 1): 131250 cells/mL
- Cells/mL ([2]; 5xEC50, 2 h, experiment 1): 135000 Cells/mL and 127500 Cells/mL
- Counts ([2]; 5xEC50, 2 h, experiment 1): 54 and 51
- AVG of cells/mL ([2]; 5xEC50, 2 h, experiment 2): 135000 cells/mL
- Cells/mL ([2]; 5xEC50, 2 h, experiment 2): 127500 Cells/mL and 142500 Cells/mL
- Counts ([2]; 5xEC50, 2 h, experiment 2): 51 and 57
- AVG of cells/mL ([2]; 5xEC50, 4 h, experiment 1): 138750 cells/mL
- Cells/mL ([2]; 5xEC50, 4 h, experiment 1): 117500 Cells/mL and 160000 Cells/mL
- Counts ([2]; 5xEC50, 4 h, experiment 1): 64 and 47
- AVG of cells/mL ([2]; 5xEC50, 4 h, experiment 2): 181250 cells/mL
- Cells/mL ([2]; 5xEC50, 4 h, experiment 2): 177500 Cells/mL and 185000 Cells/mL
- Counts ([2]; 5xEC50, 4 h, experiment 2): 74 and 71
- AVG of cells/mL ([2]; 5xEC50, 6 h, experiment 1): 140000 cells/mL
- Cells/mL ([2]; 5xEC50, 6 h, experiment 1): 127500 Cells/mL and 152500 Cells/mL
- Counts ([2]; 5xEC50, 6 h, experiment 1): 51 and 61
- AVG of cells/mL ([2]; 5xEC50, 6 h, experiment 2): 145000 cells/mL
- Cells/mL ([2]; 5xEC50, 6 h, experiment 2): 135000 Cells/mL and 155000 Cells/mL
- Counts ([2]; 5xEC50, 6 h, experiment 2): 54 and 62
- AVG of cells/mL ([2]; 5xEC50, 8 h, experiment 1): 136250 cells/mL
- Cells/mL ([2]; 5xEC50, 8 h, experiment 1): 115000 Cells/mL and 157500 Cells/mL
- Counts ([2]; 5xEC50, 8 h, experiment 1): 46 and 63
- AVG of cells/mL ([2]; 5xEC50, 8 h, experiment 2): 137500 cells/mL
- Cells/mL ([2]; 5xEC50, 8 h, experiment 2): 135000 Cells/mL and 140000 Cells/mL
- Counts ([2]; 5xEC50, 8 h, experiment 2): 54 and 56
- AVG of cells/mL ([2]; 5xEC50, 12 h, experiment 1): 127500 cells/mL
- Cells/mL ([2]; 5xEC50, 12 h, experiment 1): 135000 Cells/mL and 120000 Cells/mL
- Counts ([2]; 5xEC50, 12 h, experiment 1): 54 and 48
- AVG of cells/mL ([2]; 5xEC50, 12 h, experiment 2): 125000 cells/mL
- Cells/mL ([2]; 5xEC50, 12 h, experiment 2): 125000 Cells/mL
- Counts ([2]; 5xEC50, 12 h, experiment 2): 50
- AVG of cells/mL ([2]; 5xEC50, 24 h, experiment 1): 47500 cells/mL
- Cells/mL ([2]; 5xEC50, 24 h, experiment 1): 45000 Cells/mL and 50000 Cells/mL
- Counts ([2]; 5xEC50, 24 h, experiment 1): 18 and 20
- AVG of cells/mL ([2]; 5xEC50, 24 h, experiment 2): 25000 cells/mL
- Cells/mL ([2]; 5xEC50, 24 h, experiment 2): 27500 Cells/mL and 22500 Cells/mL
- Counts ([2]; 5xEC50, 24 h, experiment 2): 11 and 9
- AVG of cells/mL ([2]; 5xEC50, 36 h, experiment 1): 22500 cells/mL
- Cells/mL ([2]; 5xEC50, 36 h, experiment 1): 25000 Cells/mL and 20000 Cells/mL
- Counts ([2]; 5xEC50, 36 h, experiment 1): 10 and 8
- AVG of cells/mL ([2]; 5xEC50, 36 h, experiment 2): 3750 cells/mL
- Cells/mL ([2]; 5xEC50, 36 h, experiment 2): 5000 Cells/mL and 2500 Cells/mL
- Counts ([2]; 5xEC50, 36 h, experiment 2): 2 and 1
- Cells/mL ([2]; 5xEC50, 48 h, experiment 1): 0 Cells/mL
- Counts ([2]; 5xEC50, 48 h, experiment 1): 0
- AVG of cells/mL ([2]; 5xEC50, 48 h, experiment 2): 0 cells/mL
- Cells/mL ([2]; 5xEC50, 48 h, experiment 2): 0 Cells/mL
- Counts ([2]; 5xEC50, 48 h, experiment 2): 0
- EC50 ([3]; Trypanosoma brucei, read-out: TbAT1-KO EC50, AVG, source data): 374 nM
- EC50 ([3]; Trypanosoma brucei, read-out: TbAT1-KO EC50, mean and SEM, n = 3): 375 ± 12 nM
- EC50 ([3]; Trypanosoma brucei, read-out: TbAT1-KO EC50, single determinations, source data): 370 nM
- EC50 ([3]; read-out: TbAT1-KO EC50, single determinations, source data): 397 nM and 357 nM
- EC50 ([4]; Trypanosoma brucei, mean and SEM, n = 3, read-out: ISMR1 EC50): 32.4 ± 3.8 nM
- EC50 ([4]; Trypanosoma brucei, source data, read-out: ISMR1 EC50, single determinations): 39.2 nM
- RF (ISMR1) ([4]; resistance factor vs Lister 427WT): 0.97
- EC50 ([4]; source data, read-out: ISMR1 EC50, single determinations): 32 nM and 26 nM
- EC50 ([5]; Trypanosoma brucei, mean and SEM, n = 3, read-out: Lister 427 EC50): 33 ± 1 nM
- EC50 ([5]; Trypanosoma brucei, source data, read-out: s427 EC50, AVG): 33.3 nM
- EC50 ([5]; Trypanosoma brucei, source data, read-out: s427 EC50, single determinations): 32 nM
- EC50 ([5]; source data, read-out: s427 EC50, single determinations): 35.5 nM and 32.4 nM
